Measurements reported in patent publication US20030157516A1, “G protein coupled receptor” (priority 2000, published 2003).
Where two headings read alike, the source gives them in different places.

Experiments:
Type in all cases: cell-based
wild type CHO cells = assay: cAMP measurements on wild type CHO cells; conditions: wild type CHO cells
Protocol: (§1) For permanently transfected CHO cells, cAMP measurements were performed using the indirect RIA kit from NEN (Belgium).
(§2) a) Methods: Two days before the experiment the cells were seeded out in a 96 well plate at a density required for approximately 90% confluence at the day of the experiment. After removal of the growth medium, the cells were washed twice with a controlled salt solution (CSS) containing 25 mM Tris-HCl, pH 7.4, 120 mM NaCl, 5.4 mM KCl, 0.8 mM MgCl2, 1.8 mM CaCl2, 15 mM glucose and 15 mg/l phenol red, with an addition of a phosphodiesterase inhibitor IBMX (3-isobutyl-1-methylxanthine) in a concentration of 1 mM and […]. Basal cAMP levels were determined in CSS containing these additives and maximally stimulated cAMP levels were determined in the presence of 50 μM forskolin. For testing agonistic activity, the compounds were incubated with the cells for 20 minutes at 37° C. The reaction was stopped by addition of ice cold HClO4 (1N) and stored at −20° C. After thawing the mixtures were neutralized with an equivalent amount of phosphate buffered KOH, left at 4° C. during 30 minutes to allow the salts to precipitate and centrifuged at 2,000 RPM for 5 minutes at 4° C.
(§3) For the quantitative determination of the cAMP levels, a 96-well Flashplate radioimmunoassay kit from NEN was used, according to the protocol of the supplier. The sigmoid concentration response curves (duplicate points) were analyzed using the GraphPad Prism program.

rat adenine binding GPCR = target: T1, rat adenine binding GPCR (Rattus norvegicus, UniProt Q7TN49); assay: Intracellular Ca2+ measurements (FLIPR) on permanently transfected CHO cells, clone 28; design: The full length reading frame was inserted into the mammalian expression vector pcDNA3; expressed in transfected cells
T1 sequence (Q7TN49 1-304): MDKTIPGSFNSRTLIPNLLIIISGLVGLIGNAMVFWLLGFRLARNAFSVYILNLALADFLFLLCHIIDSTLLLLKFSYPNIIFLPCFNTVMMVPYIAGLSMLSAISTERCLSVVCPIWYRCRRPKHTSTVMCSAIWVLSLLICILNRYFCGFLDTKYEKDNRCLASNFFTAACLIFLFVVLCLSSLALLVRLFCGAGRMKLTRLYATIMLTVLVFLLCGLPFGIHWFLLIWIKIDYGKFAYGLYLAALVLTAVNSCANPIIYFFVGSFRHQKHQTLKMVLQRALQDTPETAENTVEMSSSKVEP
Protocol: Finally, measurements of intracellular Ca^2+ were performed on the best functionally coupled CHO cell line, clone 28. The effect of Na-butyrate pre-treatment was investigated using a dose response curve of adenine.
a) Methods—Two days before the experiment the cells were seeded out in a 96 well plate at a density required for approximately 90% cell confluence at the day of the experiment. Compounds were diluted in calcium buffer (5 mM HEPES/NaOH, pH 7.4, 140 mM NaCl, 1 mM MgCl2, 5 mM KCl, 10 mM glucose, 1.25 mM CaCl2, 2.5 mM probenecid, pH 7.4), twice their final concentrations. For basal values, calcium buffer was applied and for the maximum response, 10 μM ionomycin was used. The growth medium was removed and the cells were loaded in serum-free growth medium supplemented with probenecid (5 mM), the indicator Fluo-3 (2 μM), 20 mM HEPES/NaOH, pH, 7.4 and 0.1% BSA in the incubator at 37° C. After 60 minutes incubation, the cells were washed 3 times with the calcium buffer. 100 μl of the diluted compounds was transferred to the wells and changes in intracellular calcium levels were measured with the FLIPR® (Fluorometric Imaging Plate Reader, Molecular Devices). Each data point was run in duplicate and the peak of the Ca ^2+-transient was considered as the relevant signal. The sigmoid concentration response curves were analyzed using the GraphPad Prism program.

[1] = target: T2, adenine binding rat receptor (Rattus norvegicus, UniProt Q7TN49); assay: cAMP measurements on CHO cells permanently transfected (clone 28)
T2 construct: expressed in transfected cells; host or cells: CHO cells, transient, lipofectamine PLUS
T2 sequence (Q7TN49 1-304): T1 sequence (Q7TN49 1-304)
Protocol: as §1, §2, §3

[2] = clone 28, Na-butyrate treated cells
[3] = clone 28, non-Na-butyrate treated cells

In the case of `Nc1ncnc2nc[nH]c12` [Adenine, adenine], the cAMP response (wild type CHO cells) is reported as “did not show any response”, the EC50 (rat adenine binding GPCR; [2]) is reported as 14.8 nM and the “increase in RFU” value (rat adenine binding GPCR; [2]) is reported as 3 fold. For the same compound, the EC50 (rat adenine binding GPCR; [3]) was 72.4 nM, the “increase of the basal relative fluorescence units (RFU)” value (rat adenine binding GPCR; [3]) was 1.25 fold and the EC50 ([1]; after Na-butyrate induction, read-out: EC50) was 3 nM. For the same compound, the EC50 ([1]; transfected cells (clone 28), 0.5% hiFCS, Na-butyrate induction, read-out: pEC50 (converted)) was 2.88 nM and the EC50 ([1]; transfected cells (clone 28), 10% hiFCS, Na-butyrate induction, read-out: pEC50 (converted)) was 2.95 nM.
